Measurements: US9447116B2, “Inhibitors of HIV replication” (priority 2010, dated 2016)

Assays:
[1] = system: HIV-1 virus (NL4.3 strain); test: MT-2 based antiviral assay (S8737E); assay type: cell-based; details: Human immunodeficiency virus 1, 72 h, read-out: Antiviral Activity (S8737E, μM), HIV-1 NL4.3 replication in MT2 cells, 3 days, β-Gal readout in JC53BL cells
From the text: MT-2 Based Antiviral Assay (S8737E)
This assay is designed to determine the effects of small molecules on the replication of HIV-1 in the lymphobastoid cell line, MT2, and is able to detect the antiviral effect of compounds acting at any stage of the HIV-1 replication cycle. The assay, along with its associated cytotoxicity assay, was described in detail in 2005 in a paper by Cao et al (Antimicrobial Agents and Chemotherapy 2005; 49(9), p 3833-3841).
MT2 cells are infected with the HIV-1 virus (NL4.3 strain; Adachi et al., Journal of Virology 1986) and transferred to assay plates containing serial dilutions of compounds to be tested. The assay plates are incubated for 3 days (MT2) to allow for several rounds of viral replication/infection to take place. At the end of this time, supernatant is transferred into new plates containing JC53BL cells.
JC53BL cells express CXCR4, CCR5 and CD4 receptors, and HIV-1-LTR-β-Gal. Under normal culture conditions undetectable levels of β-Galactosidase are expressed, but in the presence of HIV-1, the viral Tat protein is able to activate the HIV-1-LTR in the JC53BL cells resulting in the increased expression of the β-Gal enzyme. The expression can be measured using the ‘FluorAce β-Galactosidase reporter’ assay. The levels of β-Gal are directly proportional to the levels of Tat (up to a threshold) allowing virus quantification. Compounds that inhibit virus replication will give rise to a reduced signal and a dose-response curve for each compound can be generated. This is then used to determine the IC50 for each compound, a measure of the compound's potency.

[2] = biological target: T1, LEDGF-Integrase interaction (Human immunodeficiency virus type 1 group M subtype B, UniProt P12497); test: HTRF Interaction assay (S9118); parameters: species or system HIV; details: His6-tagged integrase and MBP-LEDGF integrase binding domain
T1 construct: His6-tagged integrase (78 nM final concentration); purchased Prof; Zeger Debyser, Katholieke Universiteit Leuven (supplied by an academic laboratory, not a commercial vendor)
From the text: • Adachi, A., Gendelman, H., Koenig, S., Folks, T., Wiley, R., Rabson, A. and Martin, M (1986) Production of acquired immunodeficency syndrome-associated retrovirus in human and nonhuman cells transfected with an infectious molecular clone, J. Virol., 59, 284-291. • Cao J, Isaacson J, Patick A K, Blair W S. (2005) High-throughput human immunodeficiency virus type 1 (HIV-1) full replication assay that includes HIV-1 Vif as an antiviral target Antimicrobial Agents and Chemotherapy; 49(9), p 3833-3841. Assay to Measure the LEDGF-Integrase Integration Inhibitory Activity of Compounds of the Invention HTRF Interaction Assay (S9118)
An Homogeneous Time Resolved Fluorescence (HTRF) assay is performed in a manner similar to previous reports on HTRF protein assays as reviewed by Mathis (Clin. Chem., 2005). The assay procedure is performed as follows: reactions are performed in 20 μl final volume in 384-well black low volume microtiter plates (Greiner). The final reaction buffer contains 29 mM phosphase buffer (pH 7), 10 mM HEPES buffet (pH 7.4), 68.5 mM NaCl, 1.4 mM KCl, 400 mM KF 0.05% (w/v) pluronic acid (P104, Sigma Aldrich) and 1% (v/v) DMSO. His6-tagged integrase (78 nM final concentration) is incubated with […] fused to the Δ325 carboxy terminal integrase binding domain of LEDGF in the presence of compound for 2 hours at room temperature. Both these protein regents are supplied by Prof. Zeger Debyser of Katholleke Universiteit Leuven, Leuven, Belgium. The compounds are added at varying concentrations spanning a wide range from 0.1 up to 100 μM. Afterwards 8.3 nM of europium cryptate conjugated anti-MBP monoclonal antibody and 17 nM anti-His antibody conjugated with the acceptor fluorophore d2. Following a 2 hour room temperature incubation the plates are read on an EnVision™ microplate reader (Perkin Elmer) using an excitation wavelength of 320 nm. The ratio of fluorescence emitted at […] is used to assess the degree to which the protein-protein interaction had been inhibited.

Compound	IC50 [1] [µM]	IC50 [2] [nM]
Cc1nc2sc3c(c2c(-c2ccc(Cl)cc2F)c1[C@H](OC(C)(C)C)C(=O)O)CCCC3 [Example 45, (2S)-tert-butoxy[4-(4-chloro-2-fluorophenyl)-2-methyl-5,6,7,8-tetrahydro[1]benzothieno[2,3-b]pyridin-3-yl]acetic acid]	0.023	565
Cc1ccc(-c2c([C@H](OC(C)(C)C)C(=O)O)c(C)nc3sc4c(c23)CCCC4)c(F)c1 [Example 47, (2S)-tert-butoxy[4-(2-fluoro-4-methylphenyl)-2-methyl-5,6,7,8-tetrahydro[1]benzothieno[2,3-b]pyridin-3-yl]acetic acid]	0.071	657
Cc1nc2sc3c(c2c(-c2ccc(C(F)F)cc2)c1[C@H](OC(C)(C)C)C(=O)O)CCCC3 [Example 49]	0.081	11000
Cc1nc2sc3c(c2c(-c2ccc(C(F)(F)F)cc2)c1[C@H](OC(C)(C)C)C(=O)O)CCCC3 [Example 50, (S)-2-(tert-butoxy)-2-(2-methyl-4-(4-(trifluoromethyl)phenyl)-5,6,7,8-tetrahydrobenzo[4.5]thieno[2,3-b]pyridin-3-yl)acetic acid]	0.055	1500
Cc1nc2sc3c(c2c(-c2ccc(Br)cc2)c1[C@H](OC(C)(C)C)C(=O)O)CCCC3 [Example 51, (S)-2-(4-(4-bromophenyl)-2-methyl-5,6,7,8-tetrahydrobenzo[4,5]thieno[2,3-b]pyridin-3-yl)-2-(tert-butoxy)acetic acid]	0.08	1160
Cc1ccc(-c2c(C(OC(C)(C)C)C(=O)O)c(C)nc3sc4c(c23)CCOC4)cc1 (stereo not drawn) [Example 52, Tert-Butoxy-(2-methy-4-p-tolyl-5,8-dihydro-6H-7-oxa-9-thia-1-aza-fluoren-3-yl)-acetic acid]	0.189	2750
